Test results from PMC4457528, “Identification of Novel Small Molecule Inhibitors of Oncogenic RET Kinase” (PLoS ONE, 2015).

What was measured:
Assay in all cases: KinomeScan kinase panel, single concentration 10 µM
Assay type in all cases: binding
KinomeScan kinase panel [1] = target: T1, KinomeScan kinase panel (Homo sapiens, UniProt Q8TDX7); details: NEK7, 10 µM; read-out: score (%)
T1 construct: purchased DiscoveRx (KinomeScan)

KinomeScan kinase panel [2] = target: T2, KinomeScan kinase panel (Homo sapiens, UniProt Q13188); details: MST2, 10 µM; read-out: score (%)
T2 construct: purchased DiscoveRx (KinomeScan)
T2 sequence (Q13188 1-491): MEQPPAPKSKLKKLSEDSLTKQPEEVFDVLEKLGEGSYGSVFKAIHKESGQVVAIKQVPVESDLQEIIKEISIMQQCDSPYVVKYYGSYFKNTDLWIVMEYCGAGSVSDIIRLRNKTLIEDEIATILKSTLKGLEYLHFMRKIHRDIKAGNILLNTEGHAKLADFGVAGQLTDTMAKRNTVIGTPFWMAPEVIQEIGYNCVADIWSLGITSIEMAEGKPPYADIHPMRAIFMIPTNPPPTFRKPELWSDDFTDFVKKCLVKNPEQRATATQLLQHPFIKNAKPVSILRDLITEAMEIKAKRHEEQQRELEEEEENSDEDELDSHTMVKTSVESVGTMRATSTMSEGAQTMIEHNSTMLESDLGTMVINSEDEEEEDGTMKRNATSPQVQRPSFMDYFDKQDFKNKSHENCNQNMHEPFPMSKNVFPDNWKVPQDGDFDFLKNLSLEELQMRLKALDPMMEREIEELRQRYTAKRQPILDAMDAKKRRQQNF

KinomeScan kinase panel [3] = target: T3, KinomeScan kinase panel (Homo sapiens, UniProt P07332); details: FES, 10 µM; read-out: score (%)
T3 construct: purchased DiscoveRx (KinomeScan)

KinomeScan kinase panel [4] = target: T4, KinomeScan kinase panel (Homo sapiens, UniProt O14965); details: AURKA, 10 µM; read-out: score (%)
T4 construct: purchased DiscoveRx (KinomeScan)
T4 sequence (O14965 1-403): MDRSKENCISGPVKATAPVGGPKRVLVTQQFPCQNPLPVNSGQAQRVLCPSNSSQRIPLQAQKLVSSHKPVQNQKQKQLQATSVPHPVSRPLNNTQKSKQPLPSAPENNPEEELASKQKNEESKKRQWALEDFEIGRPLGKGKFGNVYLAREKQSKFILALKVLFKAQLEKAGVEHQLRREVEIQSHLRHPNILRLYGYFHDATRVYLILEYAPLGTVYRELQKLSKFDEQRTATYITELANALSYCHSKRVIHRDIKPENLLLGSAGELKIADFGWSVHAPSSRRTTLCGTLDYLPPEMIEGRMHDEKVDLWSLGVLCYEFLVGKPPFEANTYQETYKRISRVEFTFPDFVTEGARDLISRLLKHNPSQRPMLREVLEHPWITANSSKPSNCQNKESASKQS

KinomeScan kinase panel [5] = target: T5, KinomeScan kinase panel (Homo sapiens, UniProt P29317); details: EPHA2, 10 µM; read-out: score (%)
T5 construct: purchased DiscoveRx (KinomeScan)

KinomeScan kinase panel [6] = target: T6, KinomeScan kinase panel (Homo sapiens, UniProt P42685); details: FRK, 10 µM; read-out: score (%)
T6 construct: purchased DiscoveRx (KinomeScan)

KinomeScan kinase panel [7] = target: T7, KinomeScan kinase panel (Homo sapiens, UniProt Q13705); details: ACVR2B, 10 µM
T7 construct: purchased DiscoveRx (KinomeScan)

KinomeScan kinase panel [8] = target: T8, KinomeScan kinase panel (Homo sapiens, UniProt Q8IYT8); details: kinase ULK2; 10 µM; read-out: score (%)
T8 construct: purchased DiscoveRx (KinomeScan)
T8 sequence (Q8IYT8 1-1036): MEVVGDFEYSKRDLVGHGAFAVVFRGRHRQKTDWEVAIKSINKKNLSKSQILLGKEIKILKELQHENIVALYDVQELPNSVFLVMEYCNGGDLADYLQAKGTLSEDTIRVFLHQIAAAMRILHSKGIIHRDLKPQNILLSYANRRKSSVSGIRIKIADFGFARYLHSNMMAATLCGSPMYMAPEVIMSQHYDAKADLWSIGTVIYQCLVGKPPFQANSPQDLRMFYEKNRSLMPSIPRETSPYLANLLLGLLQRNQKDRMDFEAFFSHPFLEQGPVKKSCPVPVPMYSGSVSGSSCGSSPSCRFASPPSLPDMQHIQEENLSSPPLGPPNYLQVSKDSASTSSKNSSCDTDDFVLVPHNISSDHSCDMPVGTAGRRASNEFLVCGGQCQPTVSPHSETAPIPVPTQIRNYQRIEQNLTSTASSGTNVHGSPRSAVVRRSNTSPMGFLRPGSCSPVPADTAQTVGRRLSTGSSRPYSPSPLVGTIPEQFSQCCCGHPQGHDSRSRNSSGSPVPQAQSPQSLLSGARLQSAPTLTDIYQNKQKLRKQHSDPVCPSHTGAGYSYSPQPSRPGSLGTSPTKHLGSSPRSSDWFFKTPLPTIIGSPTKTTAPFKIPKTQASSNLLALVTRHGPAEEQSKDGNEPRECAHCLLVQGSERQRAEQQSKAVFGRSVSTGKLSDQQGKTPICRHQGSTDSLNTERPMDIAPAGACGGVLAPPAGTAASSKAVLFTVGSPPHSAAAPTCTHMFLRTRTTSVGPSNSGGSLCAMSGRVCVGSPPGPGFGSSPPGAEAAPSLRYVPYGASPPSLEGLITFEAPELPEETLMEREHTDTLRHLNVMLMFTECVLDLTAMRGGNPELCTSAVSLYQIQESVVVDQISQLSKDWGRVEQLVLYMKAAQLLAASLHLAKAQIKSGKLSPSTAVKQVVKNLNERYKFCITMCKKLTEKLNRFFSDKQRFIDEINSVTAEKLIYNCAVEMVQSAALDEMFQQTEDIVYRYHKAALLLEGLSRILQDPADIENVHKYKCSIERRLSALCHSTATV

KinomeScan kinase panel [9] = target: T9, KinomeScan kinase panel (Homo sapiens, UniProt P10721, T670I/V559D); details: KIT(V559D.T670I), 10 µM; read-out: score (%)
T9 construct: purchased DiscoveRx (KinomeScan)

KinomeScan kinase panel [10] = target: T10, KinomeScan kinase panel (Homo sapiens, UniProt P19525); details: 10 µM
T10 construct: purchased DiscoveRx (KinomeScan)

KinomeScan kinase panel [11] = target: T11, KinomeScan kinase panel (Homo sapiens, UniProt P42338); details: PIK3CB, 10 µM; read-out: score (%)
T11 construct: purchased DiscoveRx (KinomeScan)
T11 sequence (P42338 whole entry): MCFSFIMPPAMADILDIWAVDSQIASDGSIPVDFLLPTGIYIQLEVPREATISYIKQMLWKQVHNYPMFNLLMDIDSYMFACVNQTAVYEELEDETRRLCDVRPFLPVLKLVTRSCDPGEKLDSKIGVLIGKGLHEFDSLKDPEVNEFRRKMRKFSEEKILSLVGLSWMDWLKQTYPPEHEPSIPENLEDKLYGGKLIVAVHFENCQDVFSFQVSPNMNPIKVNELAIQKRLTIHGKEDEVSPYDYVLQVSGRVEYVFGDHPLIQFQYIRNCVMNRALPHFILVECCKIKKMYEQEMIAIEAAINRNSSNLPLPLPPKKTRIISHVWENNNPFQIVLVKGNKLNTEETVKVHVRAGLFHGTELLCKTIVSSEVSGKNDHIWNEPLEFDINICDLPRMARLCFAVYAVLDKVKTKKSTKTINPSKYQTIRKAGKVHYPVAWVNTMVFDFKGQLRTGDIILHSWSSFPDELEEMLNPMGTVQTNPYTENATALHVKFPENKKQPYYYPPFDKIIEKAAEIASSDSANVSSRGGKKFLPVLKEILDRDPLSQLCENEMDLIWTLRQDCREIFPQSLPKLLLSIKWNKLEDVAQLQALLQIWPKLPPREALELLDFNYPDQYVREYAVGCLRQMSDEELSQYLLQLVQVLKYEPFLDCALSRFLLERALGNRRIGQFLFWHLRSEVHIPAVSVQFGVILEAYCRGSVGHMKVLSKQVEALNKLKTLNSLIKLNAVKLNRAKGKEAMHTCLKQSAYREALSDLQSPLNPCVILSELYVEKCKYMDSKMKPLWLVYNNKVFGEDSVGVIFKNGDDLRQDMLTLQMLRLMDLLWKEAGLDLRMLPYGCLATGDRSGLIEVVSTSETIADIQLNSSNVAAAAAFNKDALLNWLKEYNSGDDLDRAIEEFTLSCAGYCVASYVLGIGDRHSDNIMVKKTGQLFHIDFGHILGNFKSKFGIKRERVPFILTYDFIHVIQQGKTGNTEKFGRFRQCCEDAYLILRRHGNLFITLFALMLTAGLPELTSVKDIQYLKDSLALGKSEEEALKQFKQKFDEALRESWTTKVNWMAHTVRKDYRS

T6 sequence (P42685 whole entry): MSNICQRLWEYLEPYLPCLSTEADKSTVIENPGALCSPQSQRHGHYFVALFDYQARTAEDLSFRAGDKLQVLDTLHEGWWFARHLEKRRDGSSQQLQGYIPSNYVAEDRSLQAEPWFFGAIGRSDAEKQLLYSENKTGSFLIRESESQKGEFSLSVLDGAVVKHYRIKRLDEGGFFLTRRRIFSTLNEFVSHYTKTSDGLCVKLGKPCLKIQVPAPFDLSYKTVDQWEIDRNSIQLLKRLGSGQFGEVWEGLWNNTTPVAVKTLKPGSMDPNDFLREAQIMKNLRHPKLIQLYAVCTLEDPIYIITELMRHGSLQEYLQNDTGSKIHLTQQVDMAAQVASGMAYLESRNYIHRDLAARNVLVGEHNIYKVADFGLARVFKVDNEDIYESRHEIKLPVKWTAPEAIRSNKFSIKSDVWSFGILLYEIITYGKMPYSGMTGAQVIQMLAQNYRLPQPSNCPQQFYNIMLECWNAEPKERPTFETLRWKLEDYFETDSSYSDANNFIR
T9 sequence (P10721 26-976 V559D/T670I): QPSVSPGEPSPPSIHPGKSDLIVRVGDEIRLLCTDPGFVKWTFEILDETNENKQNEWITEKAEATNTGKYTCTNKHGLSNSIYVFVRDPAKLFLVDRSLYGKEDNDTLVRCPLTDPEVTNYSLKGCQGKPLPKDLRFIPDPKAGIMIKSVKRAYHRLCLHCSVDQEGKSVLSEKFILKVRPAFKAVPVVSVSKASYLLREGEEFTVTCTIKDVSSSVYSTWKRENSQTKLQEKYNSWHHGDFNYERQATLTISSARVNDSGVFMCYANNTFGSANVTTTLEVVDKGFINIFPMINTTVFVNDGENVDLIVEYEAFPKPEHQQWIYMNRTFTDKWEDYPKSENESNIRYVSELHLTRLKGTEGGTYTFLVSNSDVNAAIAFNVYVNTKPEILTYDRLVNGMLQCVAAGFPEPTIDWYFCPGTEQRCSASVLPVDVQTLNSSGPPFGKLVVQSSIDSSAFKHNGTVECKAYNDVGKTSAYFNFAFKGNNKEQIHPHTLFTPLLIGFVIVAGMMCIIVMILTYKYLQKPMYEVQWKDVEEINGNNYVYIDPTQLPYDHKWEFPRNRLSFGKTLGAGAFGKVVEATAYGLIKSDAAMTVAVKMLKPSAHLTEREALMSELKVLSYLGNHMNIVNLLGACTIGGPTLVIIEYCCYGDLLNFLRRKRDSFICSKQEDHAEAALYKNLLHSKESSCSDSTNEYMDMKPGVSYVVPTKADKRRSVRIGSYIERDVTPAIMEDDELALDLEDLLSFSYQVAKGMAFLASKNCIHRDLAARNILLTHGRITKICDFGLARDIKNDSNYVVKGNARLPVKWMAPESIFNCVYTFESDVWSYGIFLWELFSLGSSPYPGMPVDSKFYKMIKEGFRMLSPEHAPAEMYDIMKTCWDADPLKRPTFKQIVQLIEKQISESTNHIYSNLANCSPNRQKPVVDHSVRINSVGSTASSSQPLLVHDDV
T10 sequence (P19525 whole entry): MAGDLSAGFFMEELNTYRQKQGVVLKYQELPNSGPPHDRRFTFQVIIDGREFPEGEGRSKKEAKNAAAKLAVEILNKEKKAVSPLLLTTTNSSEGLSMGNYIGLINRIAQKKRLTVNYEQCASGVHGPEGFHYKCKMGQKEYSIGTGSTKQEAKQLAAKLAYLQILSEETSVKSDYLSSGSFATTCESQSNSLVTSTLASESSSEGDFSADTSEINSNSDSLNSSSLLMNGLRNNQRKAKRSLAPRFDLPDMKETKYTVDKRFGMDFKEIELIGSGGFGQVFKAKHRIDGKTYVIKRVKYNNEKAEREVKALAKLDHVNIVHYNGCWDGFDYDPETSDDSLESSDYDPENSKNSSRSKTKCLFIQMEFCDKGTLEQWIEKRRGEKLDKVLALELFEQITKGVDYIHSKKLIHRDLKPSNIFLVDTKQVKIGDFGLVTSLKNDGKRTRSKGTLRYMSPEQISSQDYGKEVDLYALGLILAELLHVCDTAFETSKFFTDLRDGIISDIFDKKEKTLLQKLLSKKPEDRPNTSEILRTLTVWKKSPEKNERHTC
T5 sequence (P29317 24-976): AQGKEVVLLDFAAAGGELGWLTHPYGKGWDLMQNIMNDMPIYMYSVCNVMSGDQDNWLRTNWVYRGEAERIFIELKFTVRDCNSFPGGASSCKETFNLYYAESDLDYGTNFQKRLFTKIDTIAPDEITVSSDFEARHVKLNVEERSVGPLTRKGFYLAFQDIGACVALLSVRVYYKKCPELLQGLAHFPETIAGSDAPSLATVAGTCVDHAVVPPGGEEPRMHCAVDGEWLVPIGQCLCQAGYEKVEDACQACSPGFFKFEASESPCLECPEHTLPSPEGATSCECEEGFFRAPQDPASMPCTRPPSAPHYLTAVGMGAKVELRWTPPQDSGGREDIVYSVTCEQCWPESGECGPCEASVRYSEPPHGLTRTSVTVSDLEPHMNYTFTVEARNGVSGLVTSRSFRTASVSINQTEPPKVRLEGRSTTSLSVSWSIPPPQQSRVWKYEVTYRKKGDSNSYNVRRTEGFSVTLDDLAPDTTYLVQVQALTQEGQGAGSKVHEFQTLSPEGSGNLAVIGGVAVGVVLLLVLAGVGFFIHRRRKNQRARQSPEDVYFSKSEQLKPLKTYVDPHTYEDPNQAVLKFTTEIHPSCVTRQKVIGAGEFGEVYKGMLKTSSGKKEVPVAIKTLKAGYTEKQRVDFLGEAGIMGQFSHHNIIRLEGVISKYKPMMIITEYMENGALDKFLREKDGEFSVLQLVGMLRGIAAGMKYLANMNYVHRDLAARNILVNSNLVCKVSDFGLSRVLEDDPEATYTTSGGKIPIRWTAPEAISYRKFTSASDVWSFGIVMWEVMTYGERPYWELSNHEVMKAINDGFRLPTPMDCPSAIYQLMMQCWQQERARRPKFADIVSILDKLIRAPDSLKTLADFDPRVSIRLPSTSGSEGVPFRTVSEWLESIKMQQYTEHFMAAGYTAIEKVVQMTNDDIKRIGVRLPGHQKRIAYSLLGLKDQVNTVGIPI
T3 sequence (P07332 whole entry): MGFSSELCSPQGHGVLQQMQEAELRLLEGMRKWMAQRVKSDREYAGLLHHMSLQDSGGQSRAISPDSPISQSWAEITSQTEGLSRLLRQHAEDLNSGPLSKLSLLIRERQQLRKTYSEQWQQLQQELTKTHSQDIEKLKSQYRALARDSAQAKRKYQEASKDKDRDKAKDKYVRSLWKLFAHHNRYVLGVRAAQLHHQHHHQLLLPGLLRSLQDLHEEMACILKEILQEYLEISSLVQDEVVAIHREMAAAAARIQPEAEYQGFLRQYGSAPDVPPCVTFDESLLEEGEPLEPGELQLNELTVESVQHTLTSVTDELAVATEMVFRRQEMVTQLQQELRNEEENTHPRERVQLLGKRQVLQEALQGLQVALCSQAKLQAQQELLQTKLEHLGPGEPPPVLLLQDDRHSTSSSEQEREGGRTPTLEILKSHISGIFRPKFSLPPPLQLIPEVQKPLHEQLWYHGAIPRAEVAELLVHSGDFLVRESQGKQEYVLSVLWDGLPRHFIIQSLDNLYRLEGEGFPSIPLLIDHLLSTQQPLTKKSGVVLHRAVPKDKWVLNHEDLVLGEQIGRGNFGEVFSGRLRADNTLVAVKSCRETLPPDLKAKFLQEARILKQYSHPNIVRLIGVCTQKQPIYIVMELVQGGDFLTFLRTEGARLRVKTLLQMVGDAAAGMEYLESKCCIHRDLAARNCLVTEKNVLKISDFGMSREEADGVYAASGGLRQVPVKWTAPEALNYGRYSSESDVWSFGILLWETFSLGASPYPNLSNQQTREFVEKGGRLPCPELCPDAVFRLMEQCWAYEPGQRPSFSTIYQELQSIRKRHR

Row | Structure (SMILES) | remaining binding at 10 µM (KinomeScan kinase panel [1]) | remaining binding at 10 µM (KinomeScan kinase panel [2]) | remaining binding at 10 µM (KinomeScan kinase panel [3]) | remaining binding at 10 µM (KinomeScan kinase panel [4]) | remaining binding at 10 µM (KinomeScan kinase panel [5]) | remaining binding at 10 µM (KinomeScan kinase panel [6]) | score (%) (KinomeScan kinase panel [7]) | remaining binding at 10 µM (KinomeScan kinase panel [8]) | remaining binding at 10 µM (KinomeScan kinase panel [9]) | score (%) (KinomeScan kinase panel [10]; PRKR) | remaining binding at 10 µM (KinomeScan kinase panel [11]) | score (%) (KinomeScan kinase panel [10]; kinase PRKR)
1 | CCN1CCN(Cc2ccc(NC(=O)c3ccc(C)c(NC(=O)c4cncc(-c5cccs5)c4)c3)cc2C(F)(F)F)CC1 [ALW-II-41-27] | > 30% | > 30% | 0.8% | > 30% | 0.15% | 0.2% | nb (Hits values higher than 30% were considered negative (no binding: nb)) | > 30% | 0.05% | nb (Hits values higher than 30% were considered negative (no binding: nb)) | > 30% | –
2 | CCN1CCN(Cc2ccc(NC(=O)c3ccc(C)c(/C=C/c4cnc5[nH]ccc5c4Cl)c3)cc2C(F)(F)F)CC1 [HG-6-63-01, (E)-3-(2-(4-chloro-1H-pyrrolo[2,3-b]pyridin-5-yl)vinyl)-N-(4-((4-ethylpiperazin-1-yl)methyl)-3-(trifluoromethyl)phenyl)-4-methylbenzamide] | > 30% | 10% | 0.55% | 24% | 0.25% | 0.55% | nb (Hits values higher than 30% were considered negative (no binding: nb)) | 27% | 0% | nb (Hits values higher than 30% were considered negative (no binding: nb)) | > 30% | –
3 | CCN1CCN(Cc2ccc(NC(=O)c3ccc(C)c(C#Cc4cccnc4)c3)cc2C(F)(F)F)CC1 [XMD15-44] | 88% | > 30% | 0.75% | > 30% | 0.4% | 0.15% | nb (Hits values higher than 30% were considered negative (no binding: nb)) | 50% | 0% | – | 100% | 66%
